The subject of one assay is Plutella xylostella. Nature of the assay: Efficacy Example A: Plutella xylostella test (cabbage leaf dip, larval mortality). Format: in vivo. As to conditions: mortality of larvae after 6 days. How it is done: Efficacy Example A: Plutella xylostella Test
(§1) After a period of time of 6 days, the mortality is determined. 100% means that all the caterpillars have been killed; 0% means that none of the caterpillars have been killed.

In a further assay the test system is Spodoptera frugiperda. Nature of the assay: Efficacy Example B: Spodoptera frugiperda test (cabbage leaf dip, larval mortality). Format: in vivo. To be noted: mortality of larvae after 6 days. How it is done: Efficacy Example B: Spodoptera frugiperda Test
as §1

As to `CN/C(=N\[N+](=O)[O-])NCc1cnc(Cl)s1` [clothianidin], in the assay with Plutella xylostella (rate of application 100 ppm), the “Efficacy (%)” value came to 80%.
Regarding `O=[N+]([O-])NC1=NCCN1Cc1ccc(Cl)nc1` [imidacloprid], in the assay on Spodoptera frugiperda (rate of application 4 ppm), the “Efficacy (%)” value turned out to be 30%.
As for `N#C/N=C1\SCCN1Cc1ccc(Cl)nc1` [thiacloprid], in the assay on Plutella xylostella (rate of application 20 ppm), the “Efficacy (%)” value was found to be 5%.
As to `CN1COCN(Cc2cnc(Cl)s2)/C1=N\[N+](=O)[O-]` [thiamethoxam], in the assay on Spodoptera frugiperda (rate of application 20 ppm), the “Efficacy (%)” value is 0%.

The values above are taken from patent publication US20100063007A1, “PESTICIDE C[…]-[…] AND AN I[…] SUBSTANCE” (BAYER CROPSCIENCE AG, priority 2006, published 2010).
